{
  "source": "patent US20220073941A1",
  "about": "“HERBICIDE-RESISTANT CAMELINA SATIVA PLANTS, AND VARIANT CAMELINA ACETOHYDROXYACID SYNTHASE POLYPEPTIDES” (priority 2019, published 2022)",
  "assay_type_in_all_cases": "in vivo, Camelina sativa",
  "key": {"12CS0365": {"tested_on": "12CS0365", "test": "Greenhouse dose-response to thifensulfuron-methyl, plant height and dry biomass (Example 6)"}, "12CS0366": {"tested_on": "12CS0366", "test": "Greenhouse dose-response to thifensulfuron-methyl, plant height and dry biomass (Example 6)"}, "[1]": {"tested_on": "resistant lines 12CS0365, 12CS0366, 13CS0786", "test": "Phenotype scoring (resistant/susceptible) 7 d after 2.5 g ai/ha thifensulfuron-methyl (Example 5)", "from_the_text": "(§1) At a thifensulfuron-methyl application rate of 2.5 g ai/ha, plants from parental, F2, BC1F1, and BC4F2 populations could easily be scored into one of two discrete phenotypic classes (R, resistant or S, susceptible) 7 d after herbicide application."}, "[2]": {"tested_on": "susceptible controls SRS 934, 10CS0048", "test": "Phenotype scoring (resistant/susceptible) 7 d after 2.5 g ai/ha thifensulfuron-methyl (Example 5)", "conditions": "7 d after application", "from_the_text": "as §1"}},
  "data": [
    {"smiles": "COC(=O)c1sccc1S(=O)(=O)NC(=O)Nc1nc(C)nc(OC)n1", "note": "[thifensulfuron-methyl]", "values": [
      {"measurement": "Ratio of ED50 biomass values, estimate", "setting": "12CS0365; 12CS0365/12CS0366", "value": 0.08},
      {"measurement": "Ratio of ED50 height values, estimate", "setting": "12CS0365; 12CS0365/12CS0366", "value": 0.35},
      {"measurement": "Ratio of ED50 biomass values, estimate", "setting": "12CS0365; 12CS0365/13CS0786", "value": 0.008},
      {"measurement": "Ratio of ED50 height values, estimate", "setting": "12CS0365; 12CS0365/13CS0786", "value": 0.02},
      {"measurement": "Ratio of ED50 biomass values, estimate", "setting": "12CS0365; 12CS0365/SRS 934", "value": 7.93},
      {"measurement": "Ratio of ED50 height values, estimate", "setting": "12CS0365; 12CS0365/SRS 934", "value": 12.72},
      {"measurement": "Ratio of ED50 biomass values, estimate", "setting": "12CS0366; 12CS0366/13CS0786", "value": 0.0968},
      {"measurement": "Ratio of ED50 height values, estimate", "setting": "12CS0366; 12CS0366/13CS0786", "value": 0.20},
      {"measurement": "Ratio of ED50 biomass values, estimate", "setting": "12CS0366; 12CS0366/SRS 934", "value": 99.70},
      {"measurement": "Ratio of ED50 height values, estimate", "setting": "12CS0366; 12CS0366/SRS 934", "value": 36.9},
      {"measurement": "phenotype after herbicide application", "setting": "[1]", "value": "consistently produced a resistant phenotype"},
      {"measurement": "phenotype after herbicide application", "setting": "[2]", "value": "either killed or greatly damaged"}
    ]}
  ]
}
